According to article PMC9240354, “Pharmacokinetics, Pharmacodynamics and Antiviral Efficacy of the MEK Inhibitor Zapnometinib in Animal Models and in Humans” (Frontiers in Pharmacology, 2022):
Values after ≈ are worked out from the molar mass of the structure shown. Where two headings read alike, the source gives them in different places.

Legend:
MEK [1] = test: MEK inhibition in PBMCs of treated mice (pERK/ERK, Wes); assay type: in vivo, C57BL/6 mice
Experimental: (§1) PBMCs were isolated from the same blood samples (30 µl mouse blood, 50 µl hamster blood, or 1 ml dog blood) used for pharmacokinetic analysis. After plasma separation as described in the section above (Blood sampling and preparation of plasma samples), the remaining red blood cells were lysed by adding 1 volume of red blood cell (RBC) lysis buffer (Thermo Fisher Scientific, Waltham, MA, United States) (300 µl for mice, 500 µl for hamster, and 10 ml for dogs). The samples were incubated for 15 min at RT and centrifuged at 500 x g for 5 min (RT). The supernatant was removed completely, and the pellet was washed twice with PBS. The PBMC cell pellets were store at −80°C until further analysis. PBMCs of 8 ml human blood were isolated using CPT^TM tubes. After a 20-min centrifugation at 1,650 x g at room temperature, the plasma was collected for PK analysis as described in the section above (Blood sampling and preparation of plasma samples). […]
(§2) The pharmacodynamic assessment was performed using the Wes™ (Simple Western™) system which uses capillary electrophoresis to separate, identify and quantify proteins of interest. A chemiluminescence signal for each identified protein is detected and the area under the peak is calculated, which is then used for quantification. The 0.1x Sample Buffer, 400 mM dithiothreitol (DTT) solution, 5x Fluorescence Master Mix, and the Biotinylated Ladder (ProteinSimple®, Abingdon, Oxford, United Kingdom) were prepared according to manufacturer’s instructions. […] Then the 5x Fluorescence Master Mix in DTT (ProteinSimple®) was added, and the samples were denatured for 5 min at 95°C, loaded onto the assay plate and analyzed using specific antibodies. […] The anti-rabbit secondary antibody (Cat# DM-001) was also purchased from ProteinSimple® and was ready to use. Data were analyzed with Compass software for simple western (ProteinSimple®). Using the ratio of pERK to ERK of each sample compared to control (pre-dose), the level of ERK phosphorylation was calculated and then converted into the percentage level of MEK inhibition.

MEK [2] = test: MEK inhibition in PBMCs of treated Syrian hamsters (pERK/ERK, Wes); assay type: in vivo; conditions: hamster PBMCs
Experimental: as §1, §2

MEK [3] = test: MEK inhibition in PBMCs of treated beagle dogs (pERK/ERK, Wes); assay type: in vivo; conditions: formulation 3, plasma concentrations until Cmax vs ERK phosphorylation in PBMCs
Experimental: as §1, with “analysis.” for “analysis. PBMCs of 8 ml human blood were isolated using CPT^TM tubes. After a 20-min centrifugation at 1,650 x g at room temperature, the plasma was collected for PK analysis as described in the section above (Blood sampling and preparation of plasma samples).”
The pharmacodynamic assessment was performed using the Wes™ (Simple Western™) system which uses capillary electrophoresis to separate, identify and quantify proteins of interest. A chemiluminescence signal for each identified protein is detected and the area under the peak is calculated, which is then used for quantification. The 0.1x Sample Buffer, 400 mM dithiothreitol (DTT) solution, 5x Fluorescence Master Mix, and the Biotinylated Ladder (ProteinSimple®, Abingdon, Oxford, United Kingdom) were prepared according to manufacturer’s instructions. […] The anti-rabbit secondary antibody (Cat# DM-001) was also purchased from ProteinSimple® and was ready to use. […]

MEK [4] = test: MEK inhibition in PBMCs, summary regardless of species; assay type: in vivo, mice, hamsters, dogs, human
Experimental: The pharmacodynamic assessment was performed using the Wes™ (Simple Western™) system which uses capillary electrophoresis to separate, identify and quantify proteins of interest. A chemiluminescence signal for each identified protein is detected and the area under the peak is calculated, which is then used for quantification. The 0.1x Sample Buffer, 400 mM dithiothreitol (DTT) solution, 5x Fluorescence Master Mix, and the Biotinylated Ladder (ProteinSimple®, Abingdon, Oxford, United Kingdom) were prepared according to manufacturer’s instructions. For all species, PBMCs were lysed in 1x radioimmunoprecipitation assay (RIPA) buffer (containing 0.24% (w/v) tris base (Sigma-Aldrich, St. Louis, MO, United States), 0.88% (w/v) NaCl (Carl Roth GmbH, Karlsruhe, Germany), 0.2% (v/v) 500 mM EDTA (Sigma-Aldrich), 1% (v/v) Triton X-100 (Sigma-Aldrich), 0.5% (w/v) sodium deoxycholate (Sigma-Aldrich), 0.1% (w/v) sodium dodecyl sulfate (SDS) (Carl Roth), 10% (v/v) glycerol (Carl Roth), 0.05% phenylmethyl sulfonyl fluoride (PMSF) (Carl Roth), 0.01% Benzonase® Nuclease (Sigma-Aldrich), protease inhibitor cocktail (Roche, Basel, Switzerland), and phosphatase inhibitor cocktail (Roche) in H2O), further diluted with 0.1x Sample Buffer (ProteinSimple®, Abingdon, Oxford, United Kingdom) to adjust the protein concentration to 1 μg/μl. Then the 5x Fluorescence Master Mix in DTT (ProteinSimple®) was added, and the samples were denatured for 5 min at 95°C, loaded onto the assay plate and analyzed using specific antibodies. […] The anti-rabbit secondary antibody (Cat# DM-001) was also purchased from ProteinSimple® and was ready to use. Data were analyzed with Compass software for simple western (ProteinSimple®). Using the ratio of pERK to ERK of each sample compared to control (pre-dose), the level of ERK phosphorylation was calculated and then converted into the percentage level of MEK inhibition.

[5] = Syrian hamsters
[6] = healthy volunteers, n = 8
MEK1/2 = test: phosphorylation of MEK and ERK in PMA-stimulated human PBMCs (Wes); conditions: 50 µg/ml 1 h, then 400 nM PMA 30 min
Experimental: PBMCs from healthy donors were isolated, treated with zapnometinib, stimulated with Phorbol-12-Mystrat-13-Acetat (PMA) and analyzed for the reduction of MEK and ERK phosphorylation.
PBMCs of 30 ml human blood were isolated using SepMate^TM tubes (Stemcell Technologies, Vancouver, Canada) by density gradient centrifugation according to manufacturer’s instructions. The PBMCs were then cultured in the plasma and treated with 50 µg/ml zapnometinib or DMSO for 1 h at 37°C and 5% CO2. Afterwards, the PBMCs were stimulated with 400 nM PMA (Sigma-Aldrich, St. Louis, Missouri, USA) for 30 minutes at 37°C and 5% CO2. After stimulation, the cells were washed twice with PBS and centrifuged 8 minutes at 300 x g at RT. The cells were then lysed in 1x RIPA buffer and analyzed with Wes™ for phosphorylation of ERK and MEK using specific antibodies as described in the Pharmacodynamic assessment to determine level of MEK inhibition section. […]
PBMCs of healthy human volunteers were treated for 1 h with 50 µg/ml zapnometinib or DMSO as solvent control and subsequently stimulated for 30 minutes with 400 nM PMA. Cell lysates of the PBMCs were then analyzed with Wes™ for phosphorylated and total protein, and the ratio was used to calculate the phosphorylation levels. […]

Structure (SMILES): O=C(O)c1ccc(F)c(F)c1Nc1ccc(I)cc1Cl [zapnometinib, 2-(2-Chloro-4-Iodophenylamino)-N-3,4-Difluoro benzoic acid]
- MEK inhibition, first maximum (MEK [1]; 2 h after first treatment): 72 ± 10%
- MEK inhibition, second maximum (MEK [1]; 22 h after first treatment (14 h after second)): 80 ± 5%
- MEK inhibition at end of observation period (MEK [1]; t = 24 h): 66 ± 19%
- MEK inhibition 12 h after the first treatment (MEK [2]; 15 mg/kg BID): 25 ± 15%
- MEK inhibition at 24 h (MEK [2]; 15 mg/kg BID, 15 mg/kg): 43 ± 8%
- MEK inhibition at 24 h (MEK [2]; 60 mg/kg OD): 55 ± 26%
- IC50 (plasma concentration reducing ERK phosphorylation by 50% compared to pre-dose) (MEK [3]): 12.5 µg/mL (≈ 30.5 µM)
- concentration to inhibit 50% of PBMC MEK activity (MEK [4]; across all species): approximately 10 μg/ml
- MEK inhibition in PBMCs, maximum observed (MEK [4]; regardless of species): up to 80%
- MEK inhibition maintained 24 h after dosing (MEK [4]; regardless of species, almost all zapnometinib eliminated from plasma): up to 50%
- mean plasma concentration at 24 h ([5]; 15 mg/kg BID p.o.): 1000 ± 200 ng/mL
- plasma concentration 12 h after the first treatment ([5]; 15 mg/kg BID p.o., before second dose): 2000 ± 100 ng/mL
- mean plasma concentration at 24 h ([5]; 60 mg/kg OD p.o.): 200 ± 600 ng/mL
- C24 h ([6]; single oral dose 100 mg): 1000 ± 400 ng/mL
- C24 h ([6]; single oral dose 300 mg): 4000 ± 800 ng/mL
- C24 h ([6]; single oral dose 600 mg): 8000 ± 2000 ng/mL
- C24 h ([6]; single oral dose 900 mg): 16000 ± 6000 ng/mL
- phosphorylation of MEK (MEK1/2): directly prevents the phosphorylation of MEK
